{
  "source": "patent US20130149392A1",
  "about": "“METHOD OF TREATING NON-SMALL CELL LUNG CANCER WITH BIS-(THIOHYDRAZIDE)AMIDE COMPOUNDS” (SYNTA PHARMACEUTICALS CORP., priority 2011, published 2013)",
  "system": "Stage IIIB or Stage IV Non-Small Cell Lung Cancer (NSCLC)",
  "assay": "Phase 2 clinical trial of Compound (1) (STA-4783, elesclomol) with paclitaxel and carboplatin vs paclitaxel and carboplatin; PFS and OS by baseline LDH",
  "assay_type": "in vivo, human",
  "description": "A Phase 2 Clinical Trial of Compound (1), or STA-4783 (elesclomol) in combination with paclitaxel and carboplatin for the treatment of chemotherapy naive patients with Stage IIIB or Stage IV Non-Small Cell Lung Cancer (NSCLC) was performed. It was a multicenter, randomized, double-blinded, 2-arm study evaluating the recommended Phase 2 dose of STA-4783 (elesclomol) and paclitaxel and AUC=6 mg·min/mL carboplatin as compared with the recommended Phase 2 dose of paclitaxel and AUC=6 mg·min/mL carboplatin.\nBoth progression-free survival (PFS) and overall survival (OS) were improved in the low baseline LDH (≦0.8 ULN) population (where ULN is Upper Limit of Normal, which in at least one laboratory was 234 units/L, significant deviation from which was low).\nTable 1 presents PFS outcomes for ITT (Intent To Treat) population patients with high, normal and low baseline LDH levels. […] In patients with low baseline LDH levels, PFS was improved for treatment, with a median of 4.6 vs. 3.1 months (HR=0.88), where HR mean Hazard Ratio. In patients with normal baseline LDH, median PFS is similar for treatment and control arms (3.3 and 4.0 months, respectively), with a HR of 1.17. In patients with high baseline LDH, median PFS was 2.8 and 6.3 months for treatment and control arms, respectively (HR=[…])\nTable 2 presents a summary of the OS analyses for the ITT population with high, normal and low baseline LDH levels. In patients with low baseline LDH levels, OS was improved for treatment, with a median of 10.7 vs. 8.5 months (HR=0.74). In patients with normal baseline LDH, median OS is similar for treatment and control arms (8.4 and 8.4 months, respectively), with a HR of 0.91. In patients with high baseline LDH, median […] was 5 and 10 months for treatment and control arms, respectively (HR=1.64)",
  "key": {"[1]": {"conditions": "elevated LDH (>1 ULN) population"}, "[2]": {"conditions": "low baseline LDH (≦0.8 ULN) population"}},
  "data": [
    {"smiles": "CN(NC(=O)CC(=O)NN(C)C(=S)c1ccccc1)C(=S)c1ccccc1", "note": "[Compound (1), elesclomol]", "values": [
      {"measurement": "overall survival (OS), result in words", "setting": "[1]", "result": "negative impact"},
      {"measurement": "progression-free survival (PFS), result in words", "setting": "[1]", "result": "negative impact"},
      {"measurement": "overall survival (OS), result in words", "setting": "[2]", "result": "improved"},
      {"measurement": "progression-free survival (PFS), result in words", "setting": "[2]", "result": "improved"}
    ]}
  ]
}
